Non-standard residues stand in square brackets, D forms with d. Residues, ends and D or L forms follow the SMILES beside them. pGlu = O=C1CC[C@@H](C(=O)O)N1; Thz = O=C(O)[C@@H]1CSCN1
Key:
[1] = The drug is tested on Bacteroides cellulosilyticus strain: DSM14838 for biotransformation. The drug concentrations were measured before and after a 12-h incubation by liquid-chromatography-coupled mass spectrometry (LC–MS); conditions: 2 µM
[2] = The drug is tested on Bacteroides fragilis strain: HMW610 for biotransformation. The drug concentrations were measured before and after a 12-h incubation by liquid-chromatography-coupled mass spectrometry (LC–MS); conditions: 2 µM
[3] = The drug is tested on Bacteroides fragilis strain: HMW615 for biotransformation. The drug concentrations were measured before and after a 12-h incubation by liquid-chromatography-coupled mass spectrometry (LC–MS); conditions: 2 µM
[4] = The drug is tested on Bacteroides vulgatus strain: ATCC8482 for biotransformation. The drug concentrations were measured before and after a 12-h incubation by liquid-chromatography-coupled mass spectrometry (LC–MS); conditions: phocaeicola vulgatus, 2 µM
[5] = The drug is tested on Anaerococcus hydrogenalis strain: DSM7454 for biotransformation. The drug concentrations were measured before and after a 12-h incubation by liquid-chromatography-coupled mass spectrometry (LC–MS); conditions: 2 µM
[6] = The drug is tested on Blautia luti strain: DSM14534 for biotransformation. The drug concentrations were measured before and after a 12-h incubation by liquid-chromatography-coupled mass spectrometry (LC–MS); assay type: ADME; set-up: dose 2 uM, timepoint 0 vs 12 hours; conditions: 2 µM
[7] = The drug is tested on Clostridium sp. strain: fecal isolate for biotransformation. The drug concentrations were measured before and after a 12-h incubation by liquid-chromatography-coupled mass spectrometry (LC–MS); conditions: 2 µM
[8] = The drug is tested on Clostridium scindens strain: ATCC35704 for biotransformation. The drug concentrations were measured before and after a 12-h incubation by liquid-chromatography-coupled mass spectrometry (LC–MS); conditions: 2 µM
[9] = The drug is tested on Ruminococcus lactaris strain: ATCC29176 for biotransformation. The drug concentrations were measured before and after a 12-h incubation by liquid-chromatography-coupled mass spectrometry (LC–MS); conditions: 2 µM
[10] = The drug is tested on Subdoligranulum variabile strain: DSM15176 for biotransformation. The drug concentrations were measured before and after a 12-h incubation by liquid-chromatography-coupled mass spectrometry (LC–MS); conditions: 2 µM
[11] = The drug is tested on Providencia rettgeri strain: DSM1131 for biotransformation. The drug concentrations were measured before and after a 12-h incubation by liquid-chromatography-coupled mass spectrometry (LC–MS); assay type: ADME; set-up: dose 2 uM, timepoint 0 vs 12 hours; conditions: 2 µM
[12] = bacteroides eggerthii, 12 h, 2 µM
Description: The drug is tested on Bacteroides eggerthii strain: DSM20697 for biotransformation. The drug concentrations were measured before and after a 12-h incubation by liquid-chromatography-coupled mass spectrometry (LC–MS)

[13] = bacteroides fragilis, 12 h, 2 µM
Description: The drug is tested on Bacteroides fragilis strain: DS-208 for biotransformation. The drug concentrations were measured before and after a 12-h incubation by liquid-chromatography-coupled mass spectrometry (LC–MS)

[14] = bacteroides stercoris, 12 h, 2 µM
Description: The drug is tested on Bacteroides stercoris strain: ATCC43183 for biotransformation. The drug concentrations were measured before and after a 12-h incubation by liquid-chromatography-coupled mass spectrometry (LC–MS)

[15] = bacteroides thetaiotaomicron, 12 h, 2 µM
Description: The drug is tested on Bacteroides thetaiotaomicron strain: VPI-5482 for biotransformation. The drug concentrations were measured before and after a 12-h incubation by liquid-chromatography-coupled mass spectrometry (LC–MS)

[16] = parabacteroides distasonis, 12 h, 2 µM
Description: The drug is tested on Parabacteroides distasonis strain: ATCC8503 for biotransformation. The drug concentrations were measured before and after a 12-h incubation by liquid-chromatography-coupled mass spectrometry (LC–MS)

[17] = parabacteroides johnsonii, 12 h, 2 µM
Description: The drug is tested on Parabacteroides johnsonii strain: DSM18315 for biotransformation. The drug concentrations were measured before and after a 12-h incubation by liquid-chromatography-coupled mass spectrometry (LC–MS)

[18] = anaerostipes sp., 12 h, 2 µM
Description: The drug is tested on Anaerostipes sp. strain: fecal isolate for biotransformation. The drug concentrations were measured before and after a 12-h incubation by liquid-chromatography-coupled mass spectrometry (LC–MS)

[19] = roseburia intestinalis, 12 h, 2 µM
Description: The drug is tested on Roseburia intestinalis strain: L1-82 for biotransformation. The drug concentrations were measured before and after a 12-h incubation by liquid-chromatography-coupled mass spectrometry (LC–MS)

[20] = akkermansia muciniphila, 12 h, 2 µM
Description: The drug is tested on Akkermansia muciniphila strain: ATCC BAA-835 for biotransformation. The drug concentrations were measured before and after a 12-h incubation by liquid-chromatography-coupled mass spectrometry (LC–MS)

| Structure (SMILES) | Bacterial Biotransformation [1] | Bacterial Biotransformation [2] | Bacterial Biotransformation [3] | Bacterial Biotransformation [4] | Bacterial Biotransformation [5] | Bacterial Biotransformation [6] | Bacterial Biotransformation [7] | Bacterial Biotransformation [8] | Bacterial Biotransformation [9] | Bacterial Biotransformation [10] | Bacterial Biotransformation [11] | Bacterial Biotransformation [12] | Bacterial Biotransformation [13] | Bacterial Biotransformation [14] | Bacterial Biotransformation [15] | Bacterial Biotransformation [16] | Bacterial Biotransformation [17] | Bacterial Biotransformation [18] | Bacterial Biotransformation [19] | Bacterial Biotransformation [20] |
| --- | --- | --- | --- | --- | --- | --- | --- | --- | --- | --- | --- | --- | --- | --- | --- | --- | --- | --- | --- | --- |
| CCC(COC(=O)c1cc(OC)c(OC)c(OC)c1)(c1ccccc1)N(C)C.O=C(O)/C=C\C(=O)O (stereo not drawn) | Compound NOT metabolized | Compound NOT metabolized | Compound NOT metabolized | Compound NOT metabolized | Compound metabolized | Compound metabolized | Compound metabolized | Compound metabolized | Compound metabolized | Compound metabolized | Compound NOT metabolized | Compound NOT metabolized | Compound NOT metabolized | Compound metabolized | Compound metabolized | Compound metabolized | Compound metabolized | Compound metabolized | Compound metabolized | Compound metabolized |
| O=C1CC[C@@H](C(=O)N2CSC[C@H]2C(=O)O)N1 [PIDOTIMOD] ([pGlu]-[Thz]-OH) | Compound NOT metabolized | Compound metabolized | Compound metabolized | Compound NOT metabolized | Compound NOT metabolized | Compound NOT metabolized | Compound metabolized | Compound NOT metabolized | Compound NOT metabolized | Compound NOT metabolized | Compound NOT metabolized | Compound NOT metabolized | Compound metabolized | Compound metabolized | Compound metabolized | Compound metabolized | Compound metabolized | Compound NOT metabolized | Compound NOT metabolized | Compound NOT metabolized |
| O=c1[nH]c2ccccc2n1C1CCN(CCCC(c2ccc(F)cc2)c2ccc(F)cc2)CC1 [PIMOZIDE] | Compound NOT metabolized | Compound NOT metabolized | Compound NOT metabolized | Compound NOT metabolized | Compound NOT metabolized | Compound NOT metabolized | Compound NOT metabolized |  | Compound NOT metabolized | Compound NOT metabolized | Compound NOT metabolized | Compound NOT metabolized | Compound NOT metabolized | Compound NOT metabolized | Compound NOT metabolized | Compound metabolized | Compound NOT metabolized | Compound NOT metabolized | Compound NOT metabolized | Compound NOT metabolized |
| CCOc1ccccc1OCCN[C@H](C)Cc1ccc(OC)c(S(N)(=O)=O)c1.Cl [TAMSULOSIN HYDROCHLORIDE] | Compound NOT metabolized | Compound NOT metabolized | Compound NOT metabolized | Compound NOT metabolized | Compound NOT metabolized | Compound NOT metabolized | Compound NOT metabolized | Compound NOT metabolized | Compound NOT metabolized | Compound NOT metabolized | Compound NOT metabolized | Compound NOT metabolized | Compound NOT metabolized | Compound NOT metabolized | Compound NOT metabolized | Compound NOT metabolized | Compound NOT metabolized | Compound NOT metabolized | Compound NOT metabolized | Compound NOT metabolized |
| CN(C/C=C/C#CC(C)(C)C)Cc1cccc2ccccc12 [TERBINAFINE] | Compound NOT metabolized | Compound NOT metabolized | Compound NOT metabolized | Compound NOT metabolized | Compound NOT metabolized | Compound NOT metabolized | Compound NOT metabolized | Compound NOT metabolized | Compound NOT metabolized | Compound NOT metabolized | Compound NOT metabolized | Compound NOT metabolized | Compound NOT metabolized | Compound NOT metabolized | Compound NOT metabolized | Compound NOT metabolized | Compound NOT metabolized | Compound NOT metabolized | Compound NOT metabolized | Compound NOT metabolized |
| CC[C@@]1(O)C(=O)OCc2c1cc1n(c2=O)Cc2cc3c(CN(C)C)c(O)ccc3nc2-1 [TOPOTECAN] | Compound NOT metabolized | Compound NOT metabolized | Compound NOT metabolized | Compound NOT metabolized | Compound NOT metabolized | Compound NOT metabolized | Compound NOT metabolized | Compound NOT metabolized | Compound NOT metabolized | Compound NOT metabolized | Compound NOT metabolized |  | Compound NOT metabolized | Compound NOT metabolized | Compound NOT metabolized | Compound NOT metabolized | Compound NOT metabolized | Compound NOT metabolized | Compound NOT metabolized | Compound NOT metabolized |
| CN1[C@@H]2CC[C@H]1C[C@@H](OC(=O)c1c[nH]c3ccccc13)C2 [TROPISETRON] | Compound NOT metabolized | Compound NOT metabolized | Compound NOT metabolized | Compound NOT metabolized | Compound NOT metabolized | Compound NOT metabolized | Compound NOT metabolized | Compound NOT metabolized | Compound NOT metabolized | Compound NOT metabolized | Compound NOT metabolized | Compound NOT metabolized | Compound NOT metabolized | Compound NOT metabolized | Compound NOT metabolized | Compound NOT metabolized | Compound NOT metabolized | Compound NOT metabolized | Compound NOT metabolized | Compound NOT metabolized |
| CS(=O)(=O)O.O.O.O.O=C1Cc2cc(CCN3CCN(c4nsc5ccccc45)CC3)c(Cl)cc2N1 [ZIPRASIDONE MESYLATE] | Compound NOT metabolized | Compound NOT metabolized | Compound NOT metabolized | Compound metabolized | Compound NOT metabolized | Compound NOT metabolized | Compound NOT metabolized | Compound NOT metabolized | Compound NOT metabolized | Compound NOT metabolized | Compound NOT metabolized | Compound NOT metabolized | Compound NOT metabolized | Compound NOT metabolized | Compound NOT metabolized | Compound metabolized | Compound NOT metabolized | Compound NOT metabolized | Compound NOT metabolized | Compound NOT metabolized |
